From patent US20250026765A1, “SPIROHETEROCYCLE DERIVATIVE HAVING SEROTONIN RECEPTOR BINDING ACTIVITY” (Shionogi & Co., Ltd., priority 2021, published 2025)

The compounds below were run against CYP3A4 (Homo sapiens (Human), UniProt P08684) (assay: CYP3A4 (MDZ) MBI test). Details: pooled human liver microsomes, midazolam 1-hydroxylation, pre-reaction 0 or 30 minutes.
Format: in vitro ADME
Description: Test Example 8: CYP3A4 (MDZ) MBI Test
This test is a test to evaluate mechanism based inhibition (MBI) potency from enhancement of CYP3A4 inhibition of the compound of the present invention by a metabolism reaction. CYP3A4 inhibition is evaluated using pooled human liver microsomes by 1-hydroxylation reaction of midazolam (MDZ) as a marker reaction.
The reaction conditions are as follows: substrate, 10 μmol/L MDZ; pre-reaction time, 0 or 30 minutes; reaction time, 2 minutes; reaction temperature, 37° C.; pooled human liver microsomes, at pre-reaction 0.5 mg/mL, at reaction 0.05 mg/mL (at 10-fold dilution); concentrations of the compound of the present invention, 0.83, 5, 10, 20 μmol/L (four points).
Pooled human liver microsomes and a solution of the compound of the present invention in K-Pi buffer (pH 7.4) as a pre-reaction solution are added to a 96-well plate at the composition of the pre-reaction. A part of pre-reaction solution is transferred to another 96-well plate, and 1/10 diluted by K-Pi buffer containing a substrate. NADPH as a co-factor is added to initiate a reaction as a marker reaction (without preincubation). After a predetermined time of a reaction, methanol/acetonitrile=1/1 (V/V) solution is added to stop the reaction. In addition, NADPH is added to a remaining pre-reaction solution to initiate a pre-reaction (with preincubation). After a predetermined time of a pre-reaction, a part is transferred to another plate, and 1/10 diluted by K-Pi buffer containing a substrate to initiate a reaction as a marker reaction. After a predetermined time of a reaction, methanol/acetonitrile=1/1 (V/V) solution is added to stop the reaction. Each plate where the marker reaction has been performed is centrifuged at 3000 rpm for 15 minutes. Then, midazolam 1-hydroxide in the centrifuged supernatant is quantified by LC/MS/MS.
Only DMSO which is a solvent dissolving the compound of the present invention added to a reaction system is adopted as a control (100%). Remaining activity (%) is calculated at each concentration of the compound of the present invention added. IC is calculated by reverse-presumption by a logistic model using a concentration and an inhibition rate. Shifted IC value is calculated as “IC of preincubation at 0 min/IC of preincubation at 30 min”. When a shifted IC is 1.5 or more, this is defined as positive. When a shifted IC is 1.0 or less, this is defined as negative.

CYP3A4, sequence (P08684 whole entry): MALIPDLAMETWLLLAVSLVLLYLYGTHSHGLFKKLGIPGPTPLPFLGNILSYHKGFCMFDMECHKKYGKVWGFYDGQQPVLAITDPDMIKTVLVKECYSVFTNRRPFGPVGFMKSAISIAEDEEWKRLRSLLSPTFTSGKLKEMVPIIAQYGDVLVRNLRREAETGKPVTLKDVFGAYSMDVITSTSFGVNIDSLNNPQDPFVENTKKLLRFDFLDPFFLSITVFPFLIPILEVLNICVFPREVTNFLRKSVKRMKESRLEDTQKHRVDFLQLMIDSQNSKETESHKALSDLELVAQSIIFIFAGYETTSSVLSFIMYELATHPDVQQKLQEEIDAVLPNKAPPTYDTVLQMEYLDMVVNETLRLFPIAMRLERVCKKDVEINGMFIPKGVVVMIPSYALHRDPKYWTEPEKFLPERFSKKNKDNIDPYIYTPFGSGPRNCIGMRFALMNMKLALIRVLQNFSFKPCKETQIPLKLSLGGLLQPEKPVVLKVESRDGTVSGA

Row | SMILES | CYP3A4 (MDZ) MBI (shifted IC)
1 | CCCCOc1ccc(CN(Cc2coc(CF)n2)C2=NOC3(CCN(C)CC3)N2)cc1 [Compound I-105] | Negative (When a shifted IC is 1.0 or less, this is defined as negative)
2 | CC(C)COc1ccc(CN(Cc2coc(CF)n2)C2=NOC3(CCN(C)CC3)N2)cc1 [Compound I-067] | Negative (When a shifted IC is 1.0 or less, this is defined as negative)
3 | Cc1nc(CN(Cc2ccc(OCC(F)(F)C(F)(F)F)cc2F)C2=NOC3(CCN(C)CC3)N2)co1 [Compound I-104] | Negative (When a shifted IC is 1.0 or less, this is defined as negative)
4 | Cc1nc(CN(Cc2ccc(CCC(F)(F)F)cc2)C2=NOC3(CCN(C)CC3)N2)co1 [Compound I-125] | Negative (When a shifted IC is 1.0 or less, this is defined as negative)
5 | CCCCOc1ccc(CN(Cc2coc(C)n2)C2=NOC3(CCN(C)CC3)N2)c(F)c1 [Compound I-114] | Negative (When a shifted IC is 1.0 or less, this is defined as negative)
6 | CCCCOc1ccc(CN(Cc2coc(C)n2)C2=NOC3(CCN(C)CC3)N2)cc1F [Compound I-115] | Negative (When a shifted IC is 1.0 or less, this is defined as negative)
7 | CCCCOc1ccc(CN(Cc2coc(C)n2)C2=NOC3(CCN(C)CC3)N2)cc1 [Compound I-080] | Negative (When a shifted IC is 1.0 or less, this is defined as negative)
8 | Cc1nc(CN(Cc2ccc(OCC(C)C)cc2F)C2=NOC3(CCN(C)CC3)N2)co1 [Compound I-128] | Negative (When a shifted IC is 1.0 or less, this is defined as negative)
9 | CCCCOc1ccc(CN(Cc2cnn(C)n2)C2=NOC3(CCN(C)CC3)N2)cc1 [Compound I-113] | Negative (When a shifted IC is 1.0 or less, this is defined as negative)

Each compound was assayed against human ether-a-go-go related gene (hERG) channel (Homo sapiens (Human), UniProt Q12809) (assay: hERG test (FluxOR II potassium channel assay, FLIPR)). Details: CHO cells expressing hERG channel, thallium flux fluorescence, 10 minutes.
human ether-a-go-go related gene (hERG) channel, sequence (Q12809 whole entry): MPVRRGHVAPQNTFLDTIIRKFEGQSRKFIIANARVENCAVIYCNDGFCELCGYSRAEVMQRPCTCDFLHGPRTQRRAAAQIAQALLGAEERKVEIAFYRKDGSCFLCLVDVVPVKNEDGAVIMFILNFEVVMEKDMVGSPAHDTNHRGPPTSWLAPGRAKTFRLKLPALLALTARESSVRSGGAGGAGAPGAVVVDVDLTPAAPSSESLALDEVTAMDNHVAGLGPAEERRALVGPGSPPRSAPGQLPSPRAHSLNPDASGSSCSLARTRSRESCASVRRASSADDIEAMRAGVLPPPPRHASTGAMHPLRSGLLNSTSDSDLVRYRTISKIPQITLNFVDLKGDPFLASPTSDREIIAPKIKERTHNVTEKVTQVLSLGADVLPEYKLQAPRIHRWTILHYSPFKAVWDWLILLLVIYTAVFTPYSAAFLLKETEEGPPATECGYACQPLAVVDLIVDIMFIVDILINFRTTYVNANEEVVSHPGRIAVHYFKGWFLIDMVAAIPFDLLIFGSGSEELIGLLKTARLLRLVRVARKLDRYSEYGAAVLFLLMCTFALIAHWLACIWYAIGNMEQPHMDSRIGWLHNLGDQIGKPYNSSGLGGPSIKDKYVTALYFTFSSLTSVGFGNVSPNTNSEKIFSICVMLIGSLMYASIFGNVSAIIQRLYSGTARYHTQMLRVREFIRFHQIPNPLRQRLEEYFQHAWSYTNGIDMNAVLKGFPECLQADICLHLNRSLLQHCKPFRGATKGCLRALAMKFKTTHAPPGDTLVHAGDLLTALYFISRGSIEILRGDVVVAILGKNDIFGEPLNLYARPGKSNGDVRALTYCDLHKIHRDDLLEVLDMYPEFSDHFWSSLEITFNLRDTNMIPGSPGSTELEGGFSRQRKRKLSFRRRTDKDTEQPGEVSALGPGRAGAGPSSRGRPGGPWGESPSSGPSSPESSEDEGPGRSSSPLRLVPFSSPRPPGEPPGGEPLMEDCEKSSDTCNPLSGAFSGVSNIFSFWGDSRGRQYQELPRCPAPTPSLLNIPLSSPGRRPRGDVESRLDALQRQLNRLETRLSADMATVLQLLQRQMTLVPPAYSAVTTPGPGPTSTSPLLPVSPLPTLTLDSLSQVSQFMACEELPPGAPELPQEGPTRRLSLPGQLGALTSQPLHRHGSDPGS
Format: cell-based
Description: Test Example 3: hERG Test
For the purpose of evaluating risk of an electrocardiogram QT interval prolongation of the compound of the present invention, effects of the compound are studied by evaluating the activity of potassium channel using CHO cells expressing human ether-a-go-go related gene (hERG) channel.
Evaluation is performed using a FluxORII Green Potassium IonCgannel Assay kit
(Invitrogen: Molecular Probes).
Cells are seeded in a 384-assay plate (8000 cells/well/40 μL) and incubated (37° C., […] overnight. After replacing the medium with a Wash buffer (1×HBSS, 20 mM HEPES) with a microplate washer, a fluorescent indicator is added to the medium and allowed to incubate (37° C., 5% CO2) for 1 hour for incorporation of the fluorescent indicator into cells.
A cell plate is placed on a cell-based kinetic assay system FLIPR (Molecular Devices, LLC.), and the compound is added to the cells so as to have a desired concentration and reacted for 10 minutes. When a mixed solution of potassium and thallium as a stimulator is added thereto, the potassium channel is opened, and thallium that flowed into the cells binds to the fluorescent indicator, so that the intracellular fluorescence signal increases, and the potassium channel current is detected as a fluorescence signal. For the inhibition rate at each concentration, the signal intensity when E-4031 is added to cells at a final concentration of 10.3 μmol/L is defined as an inhibition rate of 100%, and the signal intensity when DMSO is added to cells at a final concentration of 0.5% is defined as an inhibition rate of 0%. Then, the inhibition rate is calculated from the signal intensity at each concentration. IC50 is calculated from the inhibition rate at each concentration.

Row | SMILES | IC50
10 | CCCCOc1ccc(CN(Cc2coc(CF)n2)C2=NOC3(CCN(C)CC3)N2)cc1 [Compound I-105] | 17.9 µM
11 | CC(C)COc1ccc(CN(Cc2coc(CF)n2)C2=NOC3(CCN(C)CC3)N2)cc1 [Compound I-067] | 16.3 µM
12 | Cc1nc(CN(Cc2ccc(OCC(F)(F)C(F)(F)F)cc2F)C2=NOC3(CCN(C)CC3)N2)co1 [Compound I-104] | 20.6 µM
13 | Cc1nc(CN(Cc2ccc(CCC(F)(F)F)cc2)C2=NOC3(CCN(C)CC3)N2)co1 [Compound I-125] | 20 µM
14 | CCCCOc1ccc(CN(Cc2coc(C)n2)C2=NOC3(CCN(C)CC3)N2)c(F)c1 [Compound I-114] | > 52 µM
15 | CCCCOc1ccc(CN(Cc2coc(C)n2)C2=NOC3(CCN(C)CC3)N2)cc1F [Compound I-115] | > 52 µM
16 | CCCCOc1ccc(CN(Cc2coc(C)n2)C2=NOC3(CCN(C)CC3)N2)cc1 [Compound I-080] | > 52 µM
17 | Cc1nc(CN(Cc2ccc(OCC(C)C)cc2F)C2=NOC3(CCN(C)CC3)N2)co1 [Compound I-128] | > 52 µM
18 | CCCCOc1ccc(CN(Cc2cnn(C)n2)C2=NOC3(CCN(C)CC3)N2)cc1 [Compound I-113] | > 52 µM
